{"source": "ChEMBL document CHEMBL1201862", "about": "“PubChem BioAssay data set” (2004)", "experiment_in_all_cases": "NCI anticancer screen, dose series, 48 h", "key": {"[1]": {"test_system": "SK-MEL-28"}, "[2]": {"test_system": "IGROV-1"}, "[3]": {"test_system": "OVCAR-3"}, "[4]": {"test_system": "UACC-62"}, "[5]": {"test_system": "HT-29"}, "[6]": {"test_system": "U-251"}, "[7]": {"test_system": "Malme-3M"}, "[8]": {"test_system": "NCI-H460"}, "[9]": {"test_system": "SNB-19"}, "[10]": {"test_system": "ACHN"}, "[11]": {"test_system": "HCT-116"}, "[12]": {"test_system": "OVCAR-5"}, "[13]": {"test_system": "HCC 2998"}, "[14]": {"test_system": "HOP-92"}}, "note": "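Five compound concentrations were applied to cells in 96-well plates for 48 hours; endpoints were derived by simple linear interpolation of the resulting dose-response curve. Here, GI50 denotes the concentration required for 50% inhibition of growth.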 The source made the active and inactive calls. Rule as the data show it: active = GI50 up to about 1.1 µM and inactive = higher."}
{"smiles": "COC(=O)/C1=C/C2CC(/C=C(/c3ccccc3)C(=O)O1)C2", "values": [{"measurement": "GI50", "setting": "[1]", "value": "23.8 µM (inactive)"}, {"measurement": "GI50", "setting": "[2]", "value": "42.4 µM (inactive)"}, {"measurement": "GI50", "setting": "[3]", "value": "33.2 µM (inactive)"}, {"measurement": "GI50", "setting": "[4]", "value": "14.7 µM (inactive)"}, {"measurement": "GI50", "setting": "[5]", "value": "26.9 µM (inactive)"}, {"measurement": "GI50", "setting": "[6]", "value": "19.7 µM (inactive)"}, {"measurement": "GI50", "setting": "[7]", "value": "12.1 µM (inactive)"}, {"measurement": "GI50", "setting": "[8]", "value": "32.6 µM (inactive)"}, {"measurement": "GI50", "setting": "[9]", "value": "35.4 µM (inactive)"}, {"measurement": "GI50", "setting": "[10]", "value": "26.3 µM (inactive)"}, {"measurement": "GI50", "setting": "[11]", "value": "21.8 µM (inactive)"}]}
{"smiles": "c1ccc2c(c1)c1ccccc1c1n[se]nc21", "values": [{"measurement": "GI50", "setting": "[1]", "value": "> 100 µM (inactive)"}, {"measurement": "GI50", "setting": "[2]", "value": "36.1 µM (inactive)"}, {"measurement": "GI50", "setting": "[4]", "value": "> 100 µM (inactive)"}, {"measurement": "GI50", "setting": "[5]", "value": "57 µM (inactive)"}, {"measurement": "GI50", "setting": "[6]", "value": "> 100 µM (inactive)"}, {"measurement": "GI50", "setting": "[7]", "value": "> 100 µM (inactive)"}, {"measurement": "GI50", "setting": "[8]", "value": "75.3 µM (inactive)"}, {"measurement": "GI50", "setting": "[9]", "value": "35.6 µM (inactive)"}, {"measurement": "GI50", "setting": "[12]", "value": "35.6 µM (inactive)"}, {"measurement": "GI50", "setting": "[10]", "value": "31.8 µM (inactive)"}]}
{"smiles": "Sc1nnc(/C=C/c2ccc(Cl)c(Cl)c2)[nH]1", "values": [{"measurement": "GI50", "setting": "[1]", "value": "> 100 µM (inactive)"}, {"measurement": "GI50", "setting": "[2]", "value": "> 100 µM (inactive)"}, {"measurement": "GI50", "setting": "[3]", "value": "77.1 µM (inactive)"}, {"measurement": "GI50", "setting": "[4]", "value": "> 100 µM (inactive)"}, {"measurement": "GI50", "setting": "[5]", "value": "> 100 µM (inactive)"}, {"measurement": "GI50", "setting": "[6]", "value": "58.5 µM (inactive)"}, {"measurement": "GI50", "setting": "[7]", "value": "> 100 µM (inactive)"}, {"measurement": "GI50", "setting": "[8]", "value": "> 100 µM (inactive)"}, {"measurement": "GI50", "setting": "[9]", "value": "> 100 µM (inactive)"}, {"measurement": "GI50", "setting": "[12]", "value": "> 100 µM (inactive)"}, {"measurement": "GI50", "setting": "[10]", "value": "> 100 µM (inactive)"}, {"measurement": "GI50", "setting": "[13]", "value": "< 0.01 µM (active)"}, {"measurement": "GI50", "setting": "[11]", "value": "> 100 µM (inactive)"}]}
{"smiles": "CC1OC(n2cc(Cl)c(=O)[nH]c2=O)C=C(OC(=O)c2ccccc2)C1=O", "note": "(stereo unspecified)", "values": [{"measurement": "GI50", "setting": "[14]", "value": "> 100 µM (inactive)"}, {"measurement": "GI50", "setting": "[1]", "value": "> 100 µM (inactive)"}, {"measurement": "GI50", "setting": "[2]", "value": "> 100 µM (inactive)"}, {"measurement": "GI50", "setting": "[3]", "value": "> 100 µM (inactive)"}, {"measurement": "GI50", "setting": "[4]", "value": "> 100 µM (inactive)"}, {"measurement": "GI50", "setting": "[5]", "value": "> 100 µM (inactive)"}, {"measurement": "GI50", "setting": "[6]", "value": "> 100 µM (inactive)"}, {"measurement": "GI50", "setting": "[7]", "value": "> 100 µM (inactive)"}, {"measurement": "GI50", "setting": "[8]", "value": "> 100 µM (inactive)"}, {"measurement": "GI50", "setting": "[9]", "value": "> 100 µM (inactive)"}, {"measurement": "GI50", "setting": "[10]", "value": "> 100 µM (inactive)"}]}
{"smiles": "Cc1cc(NS(=O)(=O)c2ccc(Nc3c4ccccc4nc4c(C(=O)Nc5ccc(S(N)(=O)=O)cc5)cccc34)cc2)no1", "values": [{"measurement": "GI50", "setting": "[14]", "value": "33 µM (inactive)"}, {"measurement": "GI50", "setting": "[1]", "value": "28.9 µM (inactive)"}, {"measurement": "GI50", "setting": "[2]", "value": "70.1 µM (inactive)"}, {"measurement": "GI50", "setting": "[3]", "value": "16 µM (inactive)"}, {"measurement": "GI50", "setting": "[4]", "value": "24.8 µM (inactive)"}, {"measurement": "GI50", "setting": "[5]", "value": "> 100 µM (inactive)"}, {"measurement": "GI50", "setting": "[6]", "value": "24.8 µM (inactive)"}, {"measurement": "GI50", "setting": "[7]", "value": "17.9 µM (inactive)"}, {"measurement": "GI50", "setting": "[8]", "value": "> 100 µM (inactive)"}, {"measurement": "GI50", "setting": "[9]", "value": "32.7 µM (inactive)"}, {"measurement": "GI50", "setting": "[12]", "value": "> 100 µM (inactive)"}, {"measurement": "GI50", "setting": "[10]", "value": "> 100 µM (inactive)"}, {"measurement": "GI50", "setting": "[11]", "value": "31.2 µM (inactive)"}]}
{"smiles": "C=C(c1ccccc1N)[C@@]1(O)C[C@H](/C(=C\\C)CO)C[C@@H]1NCc1ccccc1", "values": [{"measurement": "GI50", "setting": "[14]", "value": "3.78 µM (inactive)"}, {"measurement": "GI50", "setting": "[1]", "value": "18.3 µM (inactive)"}, {"measurement": "GI50", "setting": "[2]", "value": "31.9 µM (inactive)"}, {"measurement": "GI50", "setting": "[3]", "value": "18.2 µM (inactive)"}, {"measurement": "GI50", "setting": "[4]", "value": "28.6 µM (inactive)"}, {"measurement": "GI50", "setting": "[5]", "value": "17.5 µM (inactive)"}, {"measurement": "GI50", "setting": "[6]", "value": "17.2 µM (inactive)"}, {"measurement": "GI50", "setting": "[7]", "value": "13.4 µM (inactive)"}, {"measurement": "GI50", "setting": "[8]", "value": "20.7 µM (inactive)"}, {"measurement": "GI50", "setting": "[9]", "value": "23.2 µM (inactive)"}, {"measurement": "GI50", "setting": "[10]", "value": "36.8 µM (inactive)"}, {"measurement": "GI50", "setting": "[13]", "value": "15.7 µM (inactive)"}, {"measurement": "GI50", "setting": "[11]", "value": "15.3 µM (inactive)"}]}
{"smiles": "COc1nc(=O)cc(N)n1C1OC(CO)C(O)C1O", "note": "(stereo unspecified)", "values": [{"measurement": "GI50", "setting": "[1]", "value": "> 100 µM (inactive)"}, {"measurement": "GI50", "setting": "[2]", "value": "> 100 µM (inactive)"}, {"measurement": "GI50", "setting": "[3]", "value": "> 100 µM (inactive)"}, {"measurement": "GI50", "setting": "[4]", "value": "> 100 µM (inactive)"}, {"measurement": "GI50", "setting": "[5]", "value": "> 100 µM (inactive)"}, {"measurement": "GI50", "setting": "[6]", "value": "> 100 µM (inactive)"}, {"measurement": "GI50", "setting": "[7]", "value": "> 100 µM (inactive)"}, {"measurement": "GI50", "setting": "[8]", "value": "> 100 µM (inactive)"}, {"measurement": "GI50", "setting": "[9]", "value": "> 100 µM (inactive)"}, {"measurement": "GI50", "setting": "[12]", "value": "> 100 µM (inactive)"}, {"measurement": "GI50", "setting": "[10]", "value": "> 100 µM (inactive)"}, {"measurement": "GI50", "setting": "[13]", "value": "> 100 µM (inactive)"}, {"measurement": "GI50", "setting": "[11]", "value": "> 100 µM (inactive)"}]}
{"smiles": "CC(C)(C)C1CCC2c3c([nH]c4ccccc34)C3C(=O)N(c4ccc(Br)cc4)C(=O)C3C2C1", "note": "(stereo unspecified)", "values": [{"measurement": "GI50", "setting": "[14]", "value": "24.3 µM (inactive)"}, {"measurement": "GI50", "setting": "[1]", "value": "48.2 µM (inactive)"}, {"measurement": "GI50", "setting": "[2]", "value": "21.1 µM (inactive)"}, {"measurement": "GI50", "setting": "[4]", "value": "26.9 µM (inactive)"}, {"measurement": "GI50", "setting": "[5]", "value": "17.3 µM (inactive)"}, {"measurement": "GI50", "setting": "[7]", "value": "33.9 µM (inactive)"}, {"measurement": "GI50", "setting": "[8]", "value": "17.7 µM (inactive)"}, {"measurement": "GI50", "setting": "[9]", "value": "16.9 µM (inactive)"}, {"measurement": "GI50", "setting": "[12]", "value": "23.6 µM (inactive)"}, {"measurement": "GI50", "setting": "[10]", "value": "17.7 µM (inactive)"}, {"measurement": "GI50", "setting": "[13]", "value": "< 0.01 µM (active)"}, {"measurement": "GI50", "setting": "[11]", "value": "32.9 µM (inactive)"}]}
